Data published in patent publication US11203599B2, “Solid forms of an antiviral compound” (Gilead Pharmasset LLC, priority 2014, dated 2021).
Where a name gives a salt, the structure may show the parent alone. Values belong to the molecule of their own block, whether it stands above or below them.

Legend:
Format in all cases: physicochemical
[1] = Dynamic vapor sorption (DVS)
[2] = Water uptake of the desolvated form in contact with air (water by KF)
Method: (§1) The stable form screen of Compound I bis-HCl was performed using 20 solvents (5-10 volumes) in an attempt to discover all crystalline forms, as summarized in Table 2. Four crystalline solvates were discovered in the slurries, which utilized alcohols such as methanol, ethanol and 1-propanol. With ethanol, the initial precipitation was Compound I bis-HCl Form III solids; after stirring for two weeks, the solids became Compound I bis-HCl Form V. The shapes of these crystals appeared as needles, shown in FIG. 47. After vacuum drying, these solvates lost solvents easily and changed to Compound I bis-HCl Form VI. […] For example, Compound I bis-HCl Form VI contains 8.8% water by KF after drying the methanol solvate and contains 5.2% water after drying the ethanol solvate. Each form was characterized by XRPD, DSC and TGA (FIGS. 4-19). TGA and DSC analysis were conducted after the samples were dried at room temperature in vacuum oven for 1 hour.

[3] = Stable form screen of Compound I bis-HCl: solubility in solvents; settings: thermodynamic from solid
Method: as §1

Moisture uptake in DVS ([1]; between about 10-50% RH, FIG. 53): about 7%
Structure (SMILES): COC[C@H]1C[C@@H](c2ncc(-c3ccc4c(c3)COc3cc5c(ccc6nc([C@@H]7CC[C@H](C)N7C(=O)[C@@H](NC(=O)OC)C(C)C)[nH]c65)cc3-4)[nH]2)N(C(=O)[C@H](NC(=O)OC)c2ccccc2)C1 [Compound I D-tartrate Form II, methyl {(2S)-1-[(2S,5S)-2-(9-{2-[(2S,4S)-1-{(2R)-2-[(methoxycarbonyl)amino]-2-phenylacetyl}-4-(methoxymethyl)pyrrolidin-2-yl]-1H-imidazol-5-yl}-1,11-dihydroisochromeno[4′,3′:6,7]naphtho[1,2-d]imidazol-2-yl)-5-methylpyrrolidin-1-yl]-3-methyl-1-oxobutan-2-yl}carbamate D-tartrate]

Hygroscopicity by DVS analysis ([1]; FIG. 19): hygroscopic
Water by KF ([2]; after drying the ethanol solvate): 5.2%
Water by KF ([2]; after drying the methanol solvate): 8.8%
Water absorption in contact with air ([2]; desolvated form): absorbs water quickly
Structure (SMILES): COC[C@H]1C[C@@H](c2ncc(-c3ccc4c(c3)COc3cc5c(ccc6nc([C@@H]7CC[C@H](C)N7C(=O)[C@@H](NC(=O)OC)C(C)C)[nH]c65)cc3-4)[nH]2)N(C(=O)[C@H](NC(=O)OC)c2ccccc2)C1 [Compound I bis-HCl Form VI, methyl {(2S)-1-[(2S,5S)-2-(9-{2-[(2S,4S)-1-{(2R)-2-[(methoxycarbonyl)amino]-2-phenylacetyl}-4-(methoxymethyl)pyrrolidin-2-yl]-1H-imidazol-5-yl}-1,11-dihydroisochromeno[4′,3′:6,7]naphtho[1,2-d]imidazol-2-yl)-5-methylpyrrolidin-1-yl]-3-methyl-1-oxobutan-2-yl}carbamate bis-hydrochloride]

solubility ([3]; ethanol, organic solvent or mixture, solvent EtOH, initial Form III, final Form V): 9000 µg/mL
solubility ([3]; ethanol/water, aqueous with cosolvent or surfactant or cyclodextrin, solvent EtOH/water, Solution): > 20000 µg/mL
solubility ([3]; methanol, organic solvent or mixture, solvent MeOH, final form Compound I bis-HCl Form II): 50000 µg/mL
solubility ([3]; organic solvent or mixture, solvent 1-Propanol, final form Compound I bis-HCl Form IV): 9000 µg/mL
solubility ([3]; organic solvent or mixture, solvent 2-Butanol, Solution): > 50000 µg/mL
solubility ([3]; organic solvent or mixture, solvent Acetone, Mesophase): 6000 µg/mL
solubility ([3]; organic solvent or mixture, solvent DCM, Solution): > 20000 µg/mL
solubility ([3]; organic solvent or mixture, solvent Ethyl acetate, Mesophase): < 1000 µg/mL
solubility ([3]; organic solvent or mixture, solvent IPAc, Mesophase): < 1000 µg/mL
solubility ([3]; organic solvent or mixture, solvent MIBK, Mesophase): < 1000 µg/mL
solubility ([3]; organic solvent or mixture, solvent MTBE, Amorphous): < 1000 µg/mL
solubility ([3]; organic solvent or mixture, solvent Toluene, Mesophase): < 1000 µg/mL
solubility ([3]; organic solvent or mixture, solvent heptane, Amorphous): < 1000 µg/mL
solubility ([3]; solvent Water, final form Amorphous): < 1000 µg/mL
Structure (SMILES): COC[C@H]1C[C@@H](c2ncc(-c3ccc4c(c3)COc3cc5c(ccc6nc([C@@H]7CC[C@H](C)N7C(=O)[C@@H](NC(=O)OC)C(C)C)[nH]c65)cc3-4)[nH]2)N(C(=O)[C@H](NC(=O)OC)c2ccccc2)C1 [Compound I bis-HCl, methyl {(2S)-1-[(2S,5 S)-2-(9-{2-[(2S,4S)-1-{(2R)-2-[(methoxycarbonyl)amino]-2-phenylacetyl}-4-(methoxymethyl)pyrrolidin-2-yl]-1H-imidazol-5-yl}-1,11-dihydroisochromeno[4′,3′:6,7]naphtho[1,2-d]imidazol-2-yl)-5-methylpyrrolidin-1-yl]-3-methyl-1-oxobutan-2-yl}carbamate bis-hydrochloride]
